Source: article PMC6254361, “The properties of Msh2–Msh6 ATP binding mutants suggest a signal amplification mechanism in DNA mismatch repair” (The Journal of Biological Chemistry, 2018)

Molecular target: T1, Msh2–Msh6 (Saccharomyces cerevisiae, UniProt P25847+Q03834, Q03834:K988A)
T1 sequence (P25847 1-964): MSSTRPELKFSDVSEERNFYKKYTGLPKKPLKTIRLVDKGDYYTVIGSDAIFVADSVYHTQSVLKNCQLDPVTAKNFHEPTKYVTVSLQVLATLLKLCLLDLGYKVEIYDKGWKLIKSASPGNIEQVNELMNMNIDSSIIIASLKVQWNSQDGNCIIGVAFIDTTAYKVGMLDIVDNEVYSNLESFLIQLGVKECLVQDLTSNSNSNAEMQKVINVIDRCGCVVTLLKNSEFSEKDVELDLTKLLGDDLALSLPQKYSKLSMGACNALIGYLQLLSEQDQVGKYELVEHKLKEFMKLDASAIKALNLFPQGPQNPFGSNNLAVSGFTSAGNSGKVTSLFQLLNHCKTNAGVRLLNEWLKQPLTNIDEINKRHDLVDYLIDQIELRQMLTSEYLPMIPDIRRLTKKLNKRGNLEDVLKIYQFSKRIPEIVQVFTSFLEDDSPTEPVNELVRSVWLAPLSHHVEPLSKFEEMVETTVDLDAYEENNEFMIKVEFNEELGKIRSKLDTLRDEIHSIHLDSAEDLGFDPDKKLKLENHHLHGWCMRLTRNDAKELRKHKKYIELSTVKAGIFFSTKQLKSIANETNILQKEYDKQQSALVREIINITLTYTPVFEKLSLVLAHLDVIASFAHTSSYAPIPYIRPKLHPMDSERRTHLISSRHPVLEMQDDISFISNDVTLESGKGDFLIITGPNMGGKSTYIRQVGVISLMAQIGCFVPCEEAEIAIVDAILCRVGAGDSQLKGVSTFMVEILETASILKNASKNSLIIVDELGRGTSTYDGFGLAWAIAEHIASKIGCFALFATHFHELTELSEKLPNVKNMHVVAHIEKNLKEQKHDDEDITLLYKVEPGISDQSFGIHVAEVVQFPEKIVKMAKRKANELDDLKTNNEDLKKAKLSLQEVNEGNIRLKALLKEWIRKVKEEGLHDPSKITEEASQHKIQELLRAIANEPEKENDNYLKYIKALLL
T1 sequence (Q03834 1-1242 K988A): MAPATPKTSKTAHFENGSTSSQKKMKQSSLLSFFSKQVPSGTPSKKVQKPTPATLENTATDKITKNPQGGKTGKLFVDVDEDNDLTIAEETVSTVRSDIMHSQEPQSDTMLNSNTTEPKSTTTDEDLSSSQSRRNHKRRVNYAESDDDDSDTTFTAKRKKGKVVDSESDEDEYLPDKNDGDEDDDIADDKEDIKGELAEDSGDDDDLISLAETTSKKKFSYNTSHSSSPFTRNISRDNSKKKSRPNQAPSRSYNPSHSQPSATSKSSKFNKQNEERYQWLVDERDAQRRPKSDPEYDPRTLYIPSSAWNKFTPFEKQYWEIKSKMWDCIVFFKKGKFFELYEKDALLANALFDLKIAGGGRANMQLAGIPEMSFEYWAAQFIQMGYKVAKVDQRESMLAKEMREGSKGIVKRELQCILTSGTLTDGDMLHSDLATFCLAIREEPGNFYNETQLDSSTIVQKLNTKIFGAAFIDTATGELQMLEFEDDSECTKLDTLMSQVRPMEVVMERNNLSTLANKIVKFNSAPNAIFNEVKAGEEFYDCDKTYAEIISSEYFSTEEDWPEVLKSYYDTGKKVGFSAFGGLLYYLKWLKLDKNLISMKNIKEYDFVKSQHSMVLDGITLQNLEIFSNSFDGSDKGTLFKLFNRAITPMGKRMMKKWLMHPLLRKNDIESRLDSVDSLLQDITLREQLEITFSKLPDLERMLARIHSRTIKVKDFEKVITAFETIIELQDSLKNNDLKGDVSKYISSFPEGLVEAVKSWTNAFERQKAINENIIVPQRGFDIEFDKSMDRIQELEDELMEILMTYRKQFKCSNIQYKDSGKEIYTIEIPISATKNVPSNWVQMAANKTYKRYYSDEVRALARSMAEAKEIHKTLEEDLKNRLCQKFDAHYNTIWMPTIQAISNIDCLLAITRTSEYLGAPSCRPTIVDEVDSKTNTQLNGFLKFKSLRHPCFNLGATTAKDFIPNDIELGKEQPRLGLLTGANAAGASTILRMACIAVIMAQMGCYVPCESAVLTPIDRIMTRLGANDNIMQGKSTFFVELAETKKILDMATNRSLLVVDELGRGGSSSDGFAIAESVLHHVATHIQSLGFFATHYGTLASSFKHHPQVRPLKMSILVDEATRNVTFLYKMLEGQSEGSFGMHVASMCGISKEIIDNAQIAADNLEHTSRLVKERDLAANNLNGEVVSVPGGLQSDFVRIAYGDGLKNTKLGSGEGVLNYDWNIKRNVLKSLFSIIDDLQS
Test: UV cross-linking of [γ-32P]ATP, SDS-PAGE, phosphorimaging
Assay type: binding
Conditions: labelled compound; no Mg2+, EDTA, pH 8, on ice; Msh2 site at 60 μM ATP, Msh6 site at 1 μM ATP

Nc1ncnc2c1ncn2[C@@H]1O[C@H](COP(=O)(O)OP(=O)(O)OP(=O)(O)O)[C@@H](O)[C@H]1O [ATP]
relative ATP binding: Msh2–Msh6(K988A) and Msh2–Msh6(K988R) mutant complexes had partial ATP binding defects at the Msh2 subunit
